Test [1] relates to CD8-MerTK in Ba/F3-CDM cells. Briefly: In cell MER kinase assay, Ba/F3-CDM cell proliferation without IL-3 (Celltiter-Glo). The note with it: 48 hours compound treatment, read-out: Cell growth inhibition (GI50). In kind it is cell-based, murine. A digest of the protocol:
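Ba/F3 cells, IL-3-dependent, transfected with CD8-MerTK and grown without IL-3 in DMEM/10% FBS. IL-3-supplemented Ba/F3 cells run in parallel as a cytotoxicity control.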

The target in test [2] is human c-MER catalytic domain (Homo sapiens (Human), UniProt Q12866). Briefly: LanthaScreen TR-FRET kinase assay, c-MER. Background: TR-FRET usually uses a lanthanide donor and a delayed reading to cut background.
[3] abbreviates: read-out: Mer TK inhibition (IC50), Biochemical IC50, TR-FRET, 10 uM ATP.

Read-outs that look alike come from different tables or passages of the source.

human c-MER catalytic domain, sequence (Q12866 587-858): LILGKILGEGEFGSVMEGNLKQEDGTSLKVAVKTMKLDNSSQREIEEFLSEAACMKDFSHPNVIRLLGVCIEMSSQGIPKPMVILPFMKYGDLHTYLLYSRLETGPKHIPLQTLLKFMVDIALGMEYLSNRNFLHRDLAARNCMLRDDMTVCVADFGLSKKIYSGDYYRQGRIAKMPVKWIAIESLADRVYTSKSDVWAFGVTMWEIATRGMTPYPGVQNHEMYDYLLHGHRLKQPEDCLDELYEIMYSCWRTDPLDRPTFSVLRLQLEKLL

In the case of `Cn1cc(-c2cnc(N)c(C(=O)N[C@H]3CCC[C@@H]3OCc3ccc(C#CCCO)cc3)c2)cn1` [Example 249, 2-amino-N-((1S,2S)-2-((4-(4-hydroxybut-1-yn-1-yl)benzyl)oxy)-cyclopentyl)-5-(1-methyl-1H-pyrazol-4-yl)nicotinamide], in test [1], the 50% growth inhibitory concentration (GI50) (usually the concentration that inhibits growth by half) was above 1000 nM. Moreover, the IC50 – broadly, the concentration at which inhibition is half-maximal – in test [2] (setting [3]) was below 10 nM.

As for `CN1CCN(CCc2ccc(-c3ccc(CO[C@H]4CCC[C@@H]4NC(=O)c4cc(-c5cnn(C)c5)cnc4N)cc3)cc2)CC1` [Example 161, 2-amino-5-(1-methyl-1H-pyrazol-4-yl)-N-((1S,2S)-2-((4′-(2-(4-methylpiperazin-1-yl)ethyl)-[1,1′-biphenyl]-4-yl)methoxy)cyclopentyl)nicotinamide], in test [1], the GI50 is below 100 nM. In addition, the IC50 in test [2] (setting [3]) was below 10 nM.

Regarding `CN1CCN(Cc2ccc(-c3ccc(CO[C@H]4CCC[C@@H]4NC(=O)c4cc(-c5cnn(C(F)(F)C(F)F)c5)cnc4N)cc3)cc2)CC1` [Example 387], in test [1], the GI50 was below 100 nM. For the same compound, the IC50 in test [2] (setting [3]) was below 10 nM.

Turning to `CCc1cc(CO[C@H]2CNC[C@@H]2NC(=O)c2cc(-c3ccc(C=O)cc3)cnc2N)ccc1C` [Example 399, 2-amino-N-((3S,4S)-4-((3-ethyl-4-methylbenzyl)oxy)pyrrolidin-3-yl)-5-(4-formylphenyl)nicotinamide], the GI50 in test [1] fell in the range of 500 to 1000 nM. The IC50 in test [2] was below 10 nM.

Turning to `Cn1cc(-c2cnc(N)c(C(=O)N[C@H]3CCC[C@@H]3OCc3ccc(C#CCCCO)cc3)c2)cn1` [Example 250, 2-amino-N-((1S,2S)-2-((4-(5-hydroxypent-1-yn-1-yl)-benzyl)oxy)-cyclopentyl)-5-(1-methyl-1H-pyrazol-4-yl)nicotinamide], the GI50 in test [1] lay in the range of 100 to 500 nM. In addition, the IC50 in test [2] (setting [3]) was below 10 nM.

For `CCc1ccc(-c2ccc(CO[C@H]3CCC[C@@H]3NC(=O)c3cc(-c4cnn(C)c4)cnc3N)cc2)cc1` [Example 153, 2-amino-N-((1S,2S)-2-((4′-ethyl-[1,1′-biphenyl]-4-yl)-methoxy)cyclopentyl)-5-(1-methyl-1H-pyrazol-4-yl)nicotinamide], in test [1], the GI50 is 500 to 1000 nM. The IC50 in test [2] (setting [3]) is below 10 nM.

For `CN1CCC(Oc2ccc(-c3ccc(CO[C@H]4CCC[C@@H]4NC(=O)c4cc(-c5cnn(C)c5)cnc4N)cc3)cc2)CC1` [Example 247, 2-amino-5-(1-methyl-1H-pyrazol-4-yl)-N-((1S,2S)-2-((4′-((1-methylpiperidin-4-yl)oxy)-[1,1′-biphenyl]-4-yl)methoxy)cyclopentyl)nicotinamide], the GI50 in test [1] fell in the range of 100 to 500 nM. The IC50 in test [2] (setting [3]) was below 10 nM.

Take `CN1CCN(Cc2c(F)cc(-c3ccc(CO[C@H]4CCC[C@@H]4NC(=O)c4cc(-c5cnn(C)c5)cnc4N)cc3)cc2F)CC1` [Example 196, 2-amino-N-((1S,2S)-2-((3′,5′-difluoro-4′-((4-methylpiperazin-1-yl)methyl)-[1,1′-biphenyl]-4-yl)methoxy)cyclopentyl)-5-(1-methyl-1H-pyrazol-4-yl)nicotinamide]: in test [1], the GI50 was 100 to 500 nM. In addition, the IC50 in test [2] (setting [3]) is below 10 nM.

As to `C[C@@H](c1ccc(-c2ccc(CO[C@H]3CCC[C@@H]3NC(=O)c3cc(-c4cnn(C)c4)cnc3N)cc2)cc1)N1CCN(C)CC1` [Example 215, 2-amino-5-(1-methyl-1H-pyrazol-4-yl)-N-((1S,2S)-2-((4′-((S)-1-(4-methylpiperazin-1-yl)ethyl)-[1,1′-biphenyl]-4-yl)methoxy)cyclopentyl)nicotinamide], the GI50 in test [1] is below 100 nM. Also, the IC50 in test [2] (setting [3]) was below 10 nM.

Take `C[C@H](c1ccc(-c2ccc(CO[C@H]3CCC[C@@H]3NC(=O)c3cc(-c4cnn(C)c4)cnc3N)cc2)cc1)N1CCN(C)CC1` [Example 214, 2-amino-5-(1-methyl-1H-pyrazol-4-yl)-N-((1S,2S)-2-((4′-((R)-1-(4-methylpiperazin-1-yl)ethyl)-[1,1′-biphenyl]-4-yl)methoxy)cyclopentyl)nicotinamide]: in test [1], the GI50 was below 100 nM. For the same compound, in test [2] (setting [3]), the IC50 was below 10 nM.

On to `CN1CCN(Cc2ccc(-c3ccc(CO[C@H]4CCC[C@@H]4NC(=O)c4cc(-c5ccc(O)cc5)cnc4N)cc3)cc2)CC1` [Example 372], for which the GI50 in test [1] was below 100 nM. Further, the half-inhibitory concentration (IC50) in test [2] (setting [3]) was below 10 nM.

For the compound `CN1CCN(Cc2ccc(-c3ccc(CO[C@H]4CCC[C@@H]4NC(=O)c4cc(-c5ccccc5)cnc4N)cc3)cc2)CC1` [Example 371, 2-amino-N-((1S,2S)-2-((4′-((4-methylpiperazin-1-yl)methyl)-[1,1′-biphenyl]-4-yl)methoxy)cyclopentyl)-5-phenylnicotinamide], in test [1], the GI50 was below 100 nM. Besides, the IC50 in test [2] (setting [3]) is below 10 nM.

`Cc1cc(-c2ccc(CO[C@H]3CCC[C@@H]3NC(=O)c3cc(-c4cnn(C)c4)cnc3N)cc2)ccc1CN1CCN(C)CC1` [Example 198, 2-amino-5-(1-methyl-1H-pyrazol-4-yl)-N-((1S,2S)-2-((3′-methyl-4′-((4-methylpiperazin-1-yl)methyl)-[1,1′-biphenyl]-4-yl)methoxy)cyclopentyl)-nicotinamide]: the GI50 in test [1] was below 100 nM. Further, the IC50 in test [2] (setting [3]) was below 10 nM.

For the compound `CN1CCN(Cc2ccc(-c3ccc(CO[C@H]4CCC[C@@H]4NC(=O)c4cc(-c5cnn(C)c5)cnc4N)cc3)cc2F)CC1` [Example 195, 2-amino-N-((1S,2S)-2-((3′-fluoro-4′-((4-methylpiperazin-1-yl)-methyl)-[1,1′-biphenyl]-4-yl)methoxy)cyclopentyl)-5-(1-methyl-1H-pyrazol-4-yl)-nicotinamide], in test [1], the GI50 was below 100 nM. The IC50 in test [2] (setting [3]) was below 10 nM.

With `Cn1cc(-c2cnc(N)c(C(=O)N[C@H]3CNC[C@@H]3OCc3ccc(-c4ccc(C(C)(C)N5CCN(CCO)CC5)cc4)cc3)c2)cn1` [Example 440, 2-amino-N-((3S,4S)-4-((4′-(2-(4-(2-hydroxyethyl)piperazin-1-yl)propan-2-yl)-[1,1′-biphenyl]-4-yl)methoxy)pyrrolidin-3-yl)-5-(1-methyl-1H-pyrazol-4-yl)nicotinamide], the 50% growth inhibitory concentration (GI50) in test [1] is above 1000 nM. Besides, the IC50 in test [2] (setting [3]) is below 10 nM.

Consider `CN1CCN(Cc2ccc(-c3ccc(CO[C@H]4COC[C@@H]4NC(=O)c4cc(-c5cnn(C)c5)cnc4N)cc3)cc2)CC1` [Example 448, 2-amino-5-(1-methyl-1H-pyrazol-4-yl)-N-((3S,4R)-4-((4′-((4-methylpiperazin-1-yl)methyl)-[1,1′-biphenyl]-4-yl)methoxy)tetrahydrofuran-3-yl)-nicotinamide], for which the GI50 in test [1] was below 100 nM. Besides, the IC50 in test [2] (setting [3]) is below 10 nM.

Consider `CCc1cc(CO[C@H]2CNC[C@@H]2NC(=O)c2cc(-c3ccncc3)cnc2N)ccc1C` [Example 395, 6-amino-N-((3S,4S)-4-((3-ethyl-4-methylbenzyl)oxy)pyrrolidin-3-yl)-[3,4′-bipyridine]-5-carboxamide], for which the GI50 in test [1] lay in the range of 500 to 1000 nM. The IC50 in test [2] (setting [3]) was below 10 nM.

Take `Cc1cscc1-c1cnc(N)c(C(=O)N[C@H]2CCC[C@@H]2OCc2ccc(-c3ccc(CN4CCN(C)CC4)cc3)cc2)c1` [Example 385, 2-amino-N-((1S,2S)-2-((4′-((4-methylpiperazin-1-yl)methyl)-[1,1′-biphenyl]-4-yl)methoxy)cyclopentyl)-5-(4-methylthiophen-3-yl)nicotinamide]: the GI50 in test [1] fell in the range of 100 to 500 nM. Also, the IC50 in test [2] (setting [3]) was below 10 nM.

(Values after US10125118B2, “Heteroaryl compounds and their use as therapeutic drugs” (Dong-A Socio Holdings Co., Ltd., priority 2015, dated 2018).)
